Assay results reported in PubChem BioAssay AID1259407 (Chemical Carcinogenesis Research Information System (CCRIS), 2018).
Activity calls are given as the source filed them. No rule for the calls is given here.

System: CCRIS mutagenicity, Ames/micronucleus/aberration tests
Assay: CCRIS mutagenicity studies
[1] = Test System: AMES SALMONELLA TYPHIMURIUM, Strain/Indicator: TA98, Metabolic Activation: NONE, Method: PREINCUBATION
[2] = Test System: AMES SALMONELLA TYPHIMURIUM, Strain/Indicator: TA98, Metabolic Activation: NONE, Method: STANDARD PLATE
[3] = Test System: AMES SALMONELLA TYPHIMURIUM, Strain/Indicator: TA100, Metabolic Activation: NONE, Method: STANDARD PLATE
[4] = Test System: AMES SALMONELLA TYPHIMURIUM, Strain/Indicator: TA1537, Metabolic Activation: NONE, Method: STANDARD PLATE
[5] = Test System: AMES SALMONELLA TYPHIMURIUM, Strain/Indicator: TA98, Metabolic Activation: RAT, LIVER, S-9, AROCLOR 1254, Method: PREINCUBATION
[6] = Test System: AMES SALMONELLA TYPHIMURIUM, Strain/Indicator: TA100, Metabolic Activation: NONE, Method: PREINCUBATION
[7] = Test System: AMES SALMONELLA TYPHIMURIUM, Strain/Indicator: TA100, Metabolic Activation: RAT, LIVER, S-9, AROCLOR 1254, Method: PREINCUBATION
[8] = Test System: AMES SALMONELLA TYPHIMURIUM, Strain/Indicator: TA102, Metabolic Activation: NONE, Method: PREINCUBATION
[9] = Test System: AMES SALMONELLA TYPHIMURIUM, Strain/Indicator: TA102, Metabolic Activation: RAT, LIVER, S-9, AROCLOR 1254, Method: PREINCUBATION

Compound: N[C@@H](CS)C(=O)NCC(=O)O
- mutagenic call (Test System: AMES SALMONELLA TYPHIMURIUM, Strain/Indicator: TA102, Metabolic Activation: NONE, Method: STANDARD PLATE): active; positive

Compound: CC(=O)Nc1nc2c3cccnc3ccc2n1C
- mutagenic call (Test System: AMES SALMONELLA TYPHIMURIUM, Strain/Indicator: TA98(1,8-DNP6), Metabolic Activation: RAT, LIVER, S-9, Method: STANDARD PLATE): inactive; negative
- mutagenic call (Test System: AMES SALMONELLA TYPHIMURIUM, Strain/Indicator: TA98(NR), Metabolic Activation: RAT, LIVER, S-9, Method: STANDARD PLATE): active; positive
- mutagenic call (Test System: AMES SALMONELLA TYPHIMURIUM, Strain/Indicator: TA98, Metabolic Activation: RAT, LIVER, S-9, Method: STANDARD PLATE): active; positive
- mutagenic call (Test System: AMES SALMONELLA TYPHIMURIUM, Strain/Indicator: TA98, Method: STANDARD PLATE): active; positive

Compound: O=[N+]([O-])c1cccc2nc3ccccc3nc12
- mutagenic call (Test System: AMES SALMONELLA TYPHIMURIUM, Strain/Indicator: TA98(NR), Metabolic Activation: NONE, Method: PREINCUBATION): active; positive
- mutagenic call [1]: inactive; negative

Compound: c1cc2c3c(cccc3c1)C1NC21 (stereo unspecified)
- mutagenic call [2]: active; positive
- mutagenic call [3]: active; positive
- mutagenic call [4]: active; positive

Compound: CSSC
- mutagenic call [1]: inactive; negative
- mutagenic call [5]: inactive; negative
- mutagenic call [6]: inactive; negative
- mutagenic call [7]: inactive; negative
- mutagenic call [8]: inactive; negative
- mutagenic call [9]: inactive; negative

Compound: Cc1cnc(C)cn1
- mutagenic call [1]: inactive; negative
- mutagenic call [5]: inactive; negative
- mutagenic call [6]: inactive; negative
- mutagenic call [7]: inactive; negative
- mutagenic call [8]: inactive; negative
- mutagenic call [9]: inactive; negative

Compound: CN(CCO)CCO
- mutagenic call (Test System: AMES SALMONELLA TYPHIMURIUM, Strain/Indicator: TA98, Metabolic Activation: HAMSTER, LIVER, S-9, AROCLOR 1254 (10%), Method: PREINCUBATION): inactive; negative
- mutagenic call [1]: inactive; negative
- mutagenic call [2]: inactive; negative
- mutagenic call (Test System: AMES SALMONELLA TYPHIMURIUM, Strain/Indicator: TA98, Metabolic Activation: RAT, LIVER, S-9, AROCLOR 1254 (10%), Method: PREINCUBATION): inactive; negative
- mutagenic call (Test System: AMES SALMONELLA TYPHIMURIUM, Strain/Indicator: TA98, Metabolic Activation: RAT, LIVER, S-9, AROCLOR 1254, Method: STANDARD PLATE): inactive; negative
- mutagenic call (Test System: AMES SALMONELLA TYPHIMURIUM, Strain/Indicator: TA100, Metabolic Activation: HAMSTER, LIVER, S-9, AROCLOR 1254 (10%), Method: PREINCUBATION): inactive; negative
- mutagenic call [6]: inactive; negative
- mutagenic call [3]: inactive; negative
- mutagenic call (Test System: AMES SALMONELLA TYPHIMURIUM, Strain/Indicator: TA100, Metabolic Activation: RAT, LIVER, S-9, AROCLOR 1254 (10%), Method: PREINCUBATION): inactive; negative
- mutagenic call (Test System: AMES SALMONELLA TYPHIMURIUM, Strain/Indicator: TA100, Metabolic Activation: RAT, LIVER, S-9, AROCLOR 1254, Method: STANDARD PLATE): inactive; negative
- mutagenic call (Test System: AMES SALMONELLA TYPHIMURIUM, Strain/Indicator: TA1535, Metabolic Activation: HAMSTER, LIVER, S-9, AROCLOR 1254 (10%), Method: PREINCUBATION): inactive; negative
- mutagenic call (Test System: AMES SALMONELLA TYPHIMURIUM, Strain/Indicator: TA1535, Metabolic Activation: NONE, Method: PREINCUBATION): inactive; negative
- mutagenic call (Test System: AMES SALMONELLA TYPHIMURIUM, Strain/Indicator: TA1535, Metabolic Activation: NONE, Method: STANDARD PLATE): inactive; negative
- mutagenic call (Test System: AMES SALMONELLA TYPHIMURIUM, Strain/Indicator: TA1535, Metabolic Activation: RAT, LIVER, S-9, AROCLOR 1254 (10%), Method: PREINCUBATION): inactive; negative
- mutagenic call (Test System: AMES SALMONELLA TYPHIMURIUM, Strain/Indicator: TA1535, Metabolic Activation: RAT, LIVER, S-9, AROCLOR 1254, Method: STANDARD PLATE): inactive; negative
- mutagenic call (Test System: AMES SALMONELLA TYPHIMURIUM, Strain/Indicator: TA1537, Metabolic Activation: HAMSTER, LIVER, S-9, AROCLOR 1254 (10%), Method: PREINCUBATION): inactive; negative
- mutagenic call (Test System: AMES SALMONELLA TYPHIMURIUM, Strain/Indicator: TA1537, Metabolic Activation: NONE, Method: PREINCUBATION): inactive; negative
- mutagenic call [4]: inactive; negative
- mutagenic call (Test System: AMES SALMONELLA TYPHIMURIUM, Strain/Indicator: TA1537, Metabolic Activation: RAT, LIVER, S-9, AROCLOR 1254 (10%), Method: PREINCUBATION): inactive; negative
- mutagenic call (Test System: AMES SALMONELLA TYPHIMURIUM, Strain/Indicator: TA1537, Metabolic Activation: RAT, LIVER, S-9, AROCLOR 1254, Method: STANDARD PLATE): inactive; negative
- mutagenic call (Test System: AMES SALMONELLA TYPHIMURIUM, Strain/Indicator: TA1538, Metabolic Activation: NONE, Method: STANDARD PLATE): inactive; negative
- mutagenic call (Test System: AMES SALMONELLA TYPHIMURIUM, Strain/Indicator: TA1538, Metabolic Activation: RAT, LIVER, S-9, AROCLOR 1254, Method: STANDARD PLATE): inactive; negative
- mutagenic call (Test System: CHINESE HAMSTER OVARY, Strain/Indicator: CHO-K1-BH4, Metabolic Activation: NONE): inactive; negative
- mutagenic call (Test System: CHINESE HAMSTER OVARY, Strain/Indicator: CHO-K1-BH4, Metabolic Activation: RAT, LIVER, S-9, AROCLOR 1254): inactive; negative
